# Tests used:
# [1] = tested on: NIH3T3/EGFR vIII cell-transplanted tumor
# [2] = Acute toxicity test, oral administration; format: in vivo, ICR mice; details: for Organ weight Heart / Organ weight Kidney (Left) / Organ weight Kidney (Right) / Organ weight Liver / Organ weight Lung / Organ weight Spleen / Organ weight Thymus: two weeks after
# From the text: Two-weeks after the compounds represented by the Structural Formula (1) at the above concentrations were orally administered, the mice were dissected and organs thereof were weighed.
# Two-weeks after the compounds represented by the Structural Formula (8) at the above concentrations were orally administered, the mice were dissected and organs thereof were weighed.
# NIH3T3 cells = experiment: 2D cell culture step (environment with adhesion scaffold), proliferation of NIH3T3 cells; format: cell-based; details: Mus musculus, 72 h; NIH3T3 cells, TC-treated plate, 3 days, […]-GLO; read-out: IC50 2D cell culture step
# Experimental: Note that, as a negative control, the NIH3T3 cells at 2×10^3 cells/100 were seeded to the same plate in a volume of 100 μL per well and cultured at 37° C. in the presence of 5% CO2 for 3 days without the addition of the test substance.
# Note that, Dulbecco's Modified Eagle Medium supplemented with 5% FBS was used for the culture.
# A cell proliferation inhibition rate in the 2D cell culture step was calculated according to (Expression 2) below. Cell proliferation inhibition rate(%)=(1−D/E)×100 (Expression 2)
# In the (Expression 2), D denotes the number of viable NIH3T3 cells when the test substance was added, and E denotes the number of viable NIH3T3 cells when the test substance was not added.
# [3] = Acute toxicity test, intraperitoneal administration; format: in vivo, ICR mice; details: for Organ weight Heart / Organ weight Kidney (Left) / Organ weight Kidney (Right) / Organ weight Liver / Organ weight Lung / Organ weight Spleen / Organ weight Thymus: two weeks after
# From the text: Two-weeks after the compounds represented by the Structural Formula (1) at the above concentrations were intraperitoneally administered, the mice were dissected and organs thereof were weighed.
# Two-weeks after the compounds represented by the Structural Formula (8) at the above concentrations were intraperitoneally administered, the mice were dissected and organs thereof were weighed.
# NIH3T3/EGFR vIII cells = experiment: 3D cell culture step (environment without adhesion scaffold), proliferation of NIH3T3/EGFR vIII cells; format: cell-based, mouse
# [4] = 30 mg/kg intraperitoneally once a day, day 1 to day 17
# [5] = 0.098 mg/kg/0.2 mL, orally once
# [6] = 0.098 mg/kg/0.2 mL, intraperitoneally once
# [7] = 0.195 mg/kg/0.2 mL, intraperitoneally once
# [8] = 0.39 mg/kg/0.2 mL, intraperitoneally once
# [9] = 0.78 mg/kg/0.2 mL, intraperitoneally once
# [10] = 1.56 mg/kg/0.2 mL, intraperitoneally once
# [11] = 3.125 mg/kg/0.2 mL, intraperitoneally once
# [12] = 6.25 mg/kg/0.2 mL, intraperitoneally once
# [13] = 12.5 mg/kg/0.2 mL, intraperitoneally once
# [14] = 25 mg/kg/0.2 mL, intraperitoneally once
# [15] = 50 mg/kg/0.4 mL, intraperitoneally once
compound,measurement,setting,value
"Nc1ccc(I)cc1-c1nc2ccccc2[nH]c1=O [Structural Formula (8), 3-(2-Amino-5-iodophenyl)-2(1H)-quinoxalinone]",tumor weight versus negative control group,"[1]; 30 mg/kg intraperitoneally once a day, 17 days after transplantation, t<0.05",significantly different
same,mouse body weight (weight loss),[1]; [4],weight loss was not observed
same,toxicity,[1]; [4],no toxicity
same,tumor proliferation inhibiting activity,[1]; [4],exhibited the tumor proliferation inhibiting activity
same,tumor proliferation inhibiting activity compared with Gefitinib,[1]; 30 mg/kg intraperitoneally vs Gefitinib 100 mg/kg orally,comparable
same,Organ weight Heart,[2]; [5],124.0 mg
same,Organ weight Kidney (Left),[2]; [5],165.0 mg
same,Organ weight Kidney (Right),[2]; [5],181.0 mg
same,Organ weight Liver,[2]; [5],1322.0 mg
same,Organ weight Lung,[2]; [5],182.0 mg
same,Organ weight Spleen,[2]; [5],125.0 mg
same,Organ weight Heart,"[2]; 6.25 mg/kg/0.2 mL, orally once",119.0 mg
same,Organ weight Lung,"[2]; 6.25 mg/kg/0.2 mL, orally once",171.0 mg
same,Organ weight Thymus,"[2]; 6.25 mg/kg/0.2 mL, orally once",74.0 mg
same,Organ weight Heart,"[2]; 12.5 mg/kg/0.2 mL, orally once",111.0 mg
same,Organ weight Kidney (Left),"[2]; 12.5 mg/kg/0.2 mL, orally once",150.0 mg
same,Organ weight Kidney (Right),"[2]; 12.5 mg/kg/0.2 mL, orally once",167.0 mg
same,Organ weight Liver,"[2]; 12.5 mg/kg/0.2 mL, orally once",1375.0 mg
same,Organ weight Lung,"[2]; 12.5 mg/kg/0.2 mL, orally once",159.0 mg
same,Organ weight Spleen,"[2]; 12.5 mg/kg/0.2 mL, orally once",168.0 mg
same,Organ weight Thymus,"[2]; 12.5 mg/kg/0.2 mL, orally once",90.0 mg
same,Organ weight Heart,"[2]; 25 mg/kg/0.2 mL, orally once",110.0 mg
same,Organ weight Kidney (Left),"[2]; 25 mg/kg/0.2 mL, orally once",140.0 mg
same,Organ weight Kidney (Right),"[2]; 25 mg/kg/0.2 mL, orally once",152.0 mg
same,Organ weight Liver,"[2]; 25 mg/kg/0.2 mL, orally once",1184.0 mg
same,Organ weight Lung,"[2]; 25 mg/kg/0.2 mL, orally once",163.0 mg
same,Organ weight Spleen,"[2]; 25 mg/kg/0.2 mL, orally once",92.0 mg
same,Organ weight Thymus,"[2]; 25 mg/kg/0.2 mL, orally once",39.0 mg
same,Organ weight Heart,"[2]; 50 mg/kg/0.4 mL, orally once",116.0 mg
same,Organ weight Kidney (Left),"[2]; 50 mg/kg/0.4 mL, orally once",158.0 mg
same,Organ weight Kidney (Right),"[2]; 50 mg/kg/0.4 mL, orally once",175.0 mg
same,Organ weight Liver,"[2]; 50 mg/kg/0.4 mL, orally once",1331.0 mg
same,Organ weight Lung,"[2]; 50 mg/kg/0.4 mL, orally once",176.0 mg
same,Organ weight Spleen,"[2]; 50 mg/kg/0.4 mL, orally once",133.0 mg
same,Organ weight Thymus,"[2]; 50 mg/kg/0.4 mL, orally once",87.0 mg
same,autopsy findings,"[2]; mouse, in vivo, po",slightly lighter livers and slightly heavier spleens were found at some doses
same,abnormalities,"[2]; orally once, any doses (0.098 to 50 mg/kg)",no abnormalities were found at any doses
same,IC50,NIH3T3 cells,> 10 µM
same,Organ weight Heart,[3]; [6],118.0 mg
same,Organ weight Kidney (Left),[3]; [6],160.0 mg
same,Organ weight Kidney (Right),[3]; [6],172.0 mg
same,Organ weight Liver,[3]; [6],1476.0 mg
same,Organ weight Lung,[3]; [6],165.0 mg
same,Organ weight Spleen,[3]; [6],176.0 mg
same,Organ weight Thymus,[3]; [6],59.0 mg
same,Organ weight Heart,[3]; [7],106.0 mg
same,Organ weight Kidney (Left),[3]; [7],174.0 mg
same,Organ weight Kidney (Right),[3]; [7],181.0 mg
same,Organ weight Liver,[3]; [7],1442.0 mg
same,Organ weight Lung,[3]; [7],166.0 mg
same,Organ weight Spleen,[3]; [7],98.0 mg
same,Organ weight Thymus,[3]; [7],66.0 mg
same,Organ weight Heart,[3]; [8],108.0 mg
same,Organ weight Kidney (Left),[3]; [8],146.0 mg
same,Organ weight Kidney (Right),[3]; [8],158.0 mg
same,Organ weight Liver,[3]; [8],1234.0 mg
same,Organ weight Lung,[3]; [8],151.0 mg
same,Organ weight Spleen,[3]; [8],69.0 mg
same,Organ weight Thymus,[3]; [8],47.0 mg
same,Organ weight Heart,[3]; [9],110.0 mg
same,Organ weight Kidney (Left),[3]; [9],177.0 mg
same,Organ weight Kidney (Right),[3]; [9],181.0 mg
same,Organ weight Liver,[3]; [9],1324.0 mg
same,Organ weight Lung,[3]; [9],163.0 mg
same,Organ weight Spleen,[3]; [9],127.0 mg
same,Organ weight Thymus,[3]; [9],60.0 mg
same,Organ weight Heart,[3]; [10],125.0 mg
same,Organ weight Kidney (Left),[3]; [10],161.0 mg
same,Organ weight Kidney (Right),[3]; [10],179.0 mg
same,Organ weight Liver,[3]; [10],1738.0 mg
same,Organ weight Lung,[3]; [10],183.0 mg
same,Organ weight Spleen,[3]; [10],158.0 mg
same,Organ weight Thymus,[3]; [10],94.0 mg
same,Organ weight Heart,[3]; [11],120.0 mg
same,Organ weight Kidney (Left),[3]; [11],172.0 mg
same,Organ weight Kidney (Right),[3]; [11],175.0 mg
same,Organ weight Liver,[3]; [11],1710.0 mg
same,Organ weight Lung,[3]; [11],165.0 mg
same,Organ weight Spleen,[3]; [11],132.0 mg
same,Organ weight Thymus,[3]; [11],60.0 mg
same,Organ weight Heart,[3]; [12],120.0 mg
same,Organ weight Kidney (Left),[3]; [12],158.0 mg
same,Organ weight Kidney (Right),[3]; [12],178.0 mg
same,Organ weight Liver,[3]; [12],1641.0 mg
same,Organ weight Lung,[3]; [12],168.0 mg
same,Organ weight Spleen,[3]; [12],124.0 mg
same,Organ weight Thymus,[3]; [12],53.0 mg
same,Organ weight Heart,[3]; [13],108.0 mg
same,Organ weight Kidney (Left),[3]; [13],150.0 mg
same,Organ weight Kidney (Right),[3]; [13],149.0 mg
same,Organ weight Liver,[3]; [13],1356.0 mg
same,Organ weight Lung,[3]; [13],165.0 mg
same,Organ weight Spleen,[3]; [13],111.0 mg
same,Organ weight Thymus,[3]; [13],78.0 mg
same,Organ weight Heart,[3]; [14],108.0 mg
same,Organ weight Kidney (Left),[3]; [14],149.0 mg
same,Organ weight Kidney (Right),[3]; [14],155.0 mg
same,Organ weight Liver,[3]; [14],1564.0 mg
same,Organ weight Lung,[3]; [14],155.0 mg
same,Organ weight Spleen,[3]; [14],138.0 mg
same,Organ weight Thymus,[3]; [14],103.0 mg
same,Organ weight Heart,[3]; [15],120.0 mg
same,Organ weight Kidney (Left),[3]; [15],150.0 mg
same,Organ weight Kidney (Right),[3]; [15],152.0 mg
same,Organ weight Liver,[3]; [15],1551.0 mg
same,Organ weight Lung,[3]; [15],166.0 mg
same,Organ weight Spleen,[3]; [15],98.0 mg
same,Organ weight Thymus,[3]; [15],66.0 mg
same,abnormalities,"[3]; intraperitoneally once, any doses (0.098 to 50 mg/kg)",no abnormalities were found at any doses
same,autopsy findings,"[3]; mouse, in vivo, ip","slightly lighter livers, and slightly lighter or heavier spleens were found at some doses"
same,"cell proliferation inhibiting activity compared with AG1478, Gefitinib and Erlotinib",NIH3T3/EGFR vIII cells; 3D cell culture step,more significant cell proliferation inhibiting activity
same,IC50,"NIH3T3/EGFR vIII cells; Mus musculus, 72 h, NIH3T3/EGFR vIII cells, Ultra Low Attachment plate, 3 days, […]-GLO",0.01 µM

# Reference: patent publication US9969699B2, “Cancer cell growth inhibitor, anticancer agent, and method for screening same, as well as novel compound” (Microbial Chemistry Research Foundation, priority 2014, dated 2018)
